“Also recorded” adds a separate entry of the source. Like-named read-outs stand apart in the source and are kept apart here.
What was measured:
[1] = target: T1, peripheral-type BZ receptors (Rattus norvegicus, UniProt P16257); details: # data from Wang et al., Mol. Pharmacol. 25:349-351 (1984); cited from earlier work
T1 construct: displacement of ^3 H-RO5-4864 in brain homogenates; from tissue; host or cells: brain homogenates

[2] = Physical trauma (head injury) model, grip score 18 hours post-injury; assay type: in vivo, mice (male CF-1); details: by extrapolation from Table 3 binding data
[3] = test system: platelet aggregation; details: cited from earlier work
[4] = Physical trauma (head injury) model, grip score 18 hours post-injury; assay type: in vivo, mice (male CF-1); details: for effectiveness in treatment of CNS trauma/damage (in words): grip score 18 h post trauma, FIGS. 1-8
Text: Two tests which can be readily performed are observation of grip score and observation of grip time in injured test animals. Another test for agonist activity is for decrease in mortality caused by the CNS injury. Mice can be treated to simulate CNS injury by a variety of methods: they can be deprived of oxygen by administration of KCN (Nauquier, A., et al., Arch. Int. Pharmacodyn., 249:330 (1981)) or by temporary tying-off of the carotid artery (Braughler, J. M. and Lainer, M. J., "The effects of large doses of methylprednisolone on neurologic recovery and survival in the Mongolian gerbil following three hours of unilateral carotid occlusion," CNS Trauma, 3:153-162 (1986)). Alternatively, blows can be administered to the head or the spinal cord of the test animal.
The following protocol was used:
The compound to be tested was weighed and suspended in a polyethylated castor oil solution ("Cremophore") (21% Cremaphore, 3% ethanol in 0.9% saline). The concentration of the solution was then adjusted for administration at a dose of 0.01 cc/gm body weight. For example, for a dose of 10 mg/Kg, the solution was made 1.0 mg/cc, and a 23 g mouse would receive 0.23 cc of this solution. The solution was sonicated for approximately 90 minutes, or until the compound is dissolved.
Male CF-1 mice (15-25 gm) were weighed and marked for identification purposes. Each individual mouse was restrained by grasping the dorsal skin of the neck until the mouse was still. An impounder was used to administer the trauma. The impounder consists of a weight suspended over the animal's head at a height sufficient to produce significant injury when dropped, and a means for immobilizing the animal (in this case, room to hold the animal in place). […] 62:882-887, 883. The mouse was positioned properly under the impounder, and the weight was released from its preset height (11 CM).
Immediately following injury, the mouse was placed under a heat lamp. At various times after injury, the drug was administered intravenously at the specified dose. The time of injury and the time of injection were recorded.
B) Measurement of Grip Score
Each mouse was evaluated 18 hours post-injury for neurological deficit. The delay of 18 hours provided time for any sedative effects of the compound to wear off. It also provided time for healing to occur. Mortality was also noted. A standard grip test, as described in Hall et al., J. Neurosurg. 68:456-461 (1988), was used. The apparatus consisted of a taut string suspended between two uprights, 60 cm in length and 40 cm above a padded table.
(§1) Each mouse was picked up by the tail and placed on the string. […] The tail was then released. Grip score was recorded based on the mouse's performance while on the string. The following criteria were used (taken from Hall, E. D., J. Neurosurg. 62:882-887 (1985)):
C) Statistical Analysis Results of the above test were analyzed for statistical significance using the Mann-Whitney U test. See R. V. Tallarida & R. B. Murray, MANUAL OF PHARMACOLOGIC CALCULATIONS WITH COMPUTER PROGRAMS, Springer-Verlag, N.Y., pp. 57-59 (1981). This test was used to compare each set of grip scores for a particular dose of a particular compound against the grip scores for the control group.

[5] = target: T1, peripheral-type BZ receptors; experiment: Competitive binding assay, displacement of 3H-Ro5-4864 in brain homogenates
Text: Sprengel, R., et al., "Molecular cloning and expression of cDNA encoding a peripheral-type benzodiazepine receptor," J. Biol. Chem., 264:20415-20421 (1989).
Some of these compounds were further tested in in vivo studies.

[6] = test system: peripheral-type BZ receptor; experiment: Antagonism of Ro5 4864-induced improvement of grip score by PK 14105 following head injury; assay type: in vivo, mice; details: for GRIP TEST SCORE: tested 1 hour after injury
Text: Male CF-1 mice (15-25 gm) were weighed and marked for identification purposes. Each individual mouse was restrained by grasping the dorsal skin of the neck until the mouse was still. An impounder was used to administer the trauma. The impounder consists of a weight suspended over the animal's head at a height sufficient to produce significant injury when dropped, and a means for immobilizing the animal (in this case, room to hold the animal in place). An example of such an impounder can be found in Hall, E.D., "High Dose Glucocorticoid Treatment Improves Neurological Recovery in Head Injured Mice," J. Neurosurg. 62:882-887, 883. The mouse was positioned properly under the impounder, and the weight was released from its preset height (11 CM).
as §1
The inhibitory agonist alone does (row 2 as compared to row 1).
^a Animals were administered vehicle or PK 14105 i.v. 30 min prior to
^b Animals were administered vehicle or Ro5 4864 i.v. 5 min after hea
^c Animals were tested 1 hour after headinjury

[7] = stroke treatment; cited from earlier work
[8] = in vivo; cited from earlier work
[9] = test system: NMDA receptor; details: cats; cited from earlier work
[10] = test system: NMDA receptor; details: in vivo; cited from earlier work

CN1C(=O)CN=C(c2ccc(Cl)cc2Cl)c2cc(Cl)ccc21 [Ro5-6900, 2',4',7-Trichloro-1,3-dihydro-1-methyl-5-phenyl-2H-1,4-benzodiazepin-2-one]
IC50 [1]: 10 nM
effectiveness for treatment of CNS trauma or disease (in words) [2]: effective

CC(=O)Oc1ccccc1C(=O)O [Aspirin]
effect on platelet aggregation [3]: inhibit platelet aggregation

CN1C(=O)CN=C(c2ccccc2Cl)c2cc(Cl)ccc21 [Ro5-3448, 2',7-Dichloro-1,3-dihydro-1-methyl-5-phenyl-2H-1,4-benzodiazepin-2-one]
IC50 [1]: 35.2 nM
effectiveness for treatment of CNS trauma or disease (in words) [2]: effective

Clc1ccccc1CN1CCc2sccc2C1 [ticlopidine]
effect on platelet aggregation [3]: inhibit platelet aggregation

CC(C)(C)OC(=O)c1ncn2c1[C@@H]1CCCN1C(=O)c1c(Br)cccc1-2 [Rol6-6028]
effectiveness in treatment of CNS trauma/damage (in words) [4]: inactive in the treatment of CNS damage
IC50 [5]: > 10000 nM

CCC(C)N(C)C(=O)c1cc2ccccc2c(-c2cc([N+](=O)[O-])ccc2F)n1 (centres unmarked) [PK 14105, 1-(2-fluoro-5-nitrophenyl)-1-methyl-N(1-methyl-propyl)-3-isoquinoline carboxamide]
effectiveness in treatment of CNS trauma/damage (in words) [4]: inactive in treating CNS damage
functional class at the peripheral-type BZ receptor (in words) ([4]; inferred from binding and lack of grip score effect): antagonist to the peripheral-type BZ receptor
grip scores compared with controls (in words) ([4]; moderate and high doses, FIG. 8): stay the same as those of the controls
binding affinity to peripheral-type BZ sites (in words) [5]: very strong binding affinity
IC50 ([5]; displacement of 3H-Ro5-4864 in brain homogenates, * data by procedure described herein, read-out: IC50): 4.5 nM
GRIP TEST SCORE ([6]; 10 mg/kg i.v. 30 min preinjury, postinjury vehicle): 1.40 ± 0.28
effect of the antagonist on grip score (in words) ([6]; antagonist alone): no statistically significant effect on grip score post trauma
effect on agonist-induced improvement of grip score (in words) ([6]; antagonist with inhibitory agonist, 1 hour post-trauma): prevents the agonist from improving grip score

COc1ccc(C2=NCC(=O)N(C)c3ccc(Cl)cc32)cc1 [Ro5-6669, 7-Chloro-1,3-dihydro-4'-methoxy-1-methyl-5-phenyl-2H-1,4-benzodiazepin-2-one]
IC50 [1]: 18.7 nM
effectiveness for treatment of CNS trauma or disease (in words) [2]: effective

CN1C(=O)CN=C(c2ccc(Cl)cc2)c2cc(F)ccc21 [Ro5-6524, 4'-Chloro-7-fluoro-1,3-dihydro-1-methyl-5-phenyl-2H-1,4-benzodiazepin-2-one]
IC50 [1]: 340 nM

O=C1C(CC[S+]([O-])c2ccccc2)C(=O)N(c2ccccc2)N1c1ccccc1 (centres unmarked) [sulfinpyrazone]
effect on platelet aggregation [3]: inhibit platelet aggregation

O=C1CN=C(c2ccccc2Cl)c2cc([N+](=O)[O-])ccc2N1 [Clonazepam]
effectiveness in treatment of CNS trauma/damage (in words) [4]: inactive in the treatment of CNS damage
IC50 [5]: 9180 nM

C[C@]12CCC(=O)C=C1CC[C@@H]1[C@@H]2C(=O)C[C@@]2(C)[C@H]1CC[C@]2(O)C(=O)CO [cortisone]
effect on neurologic outcome, morbidity or mortality in stroke [7]: no difference in morbidity or mortality

CN1C(=O)CN=C(c2ccccc2)c2ccccc21 [Ro5-3464, 1,3-Dihydro-1-methyl-5-phenyl-2H-1,4-benzodiazepin-2-one]
effectiveness in treatment of CNS trauma/damage (in words) [4]: non-effective; also recorded: inactive in the treatment of CNS damage
IC50 [5]: 1230 nM
binding affinity to peripheral-type BZ sites (in words) [5]: very high IC50 values

OC[C@@H](O)[C@@H](O)[C@H](O)[C@H](O)CO [mannitol]
adverse effects [8]: severe rebound cerebral edema

CN1C(=O)CN=C(c2ccc(Cl)cc2)c2ccccc21 [Ro5-5115, 4'-Chloro-1,3-dihydro-1-methyl-5-phenyl-2H-1,4-benzodiazepin-2-one]
IC50 [1]: 106 nM

CN1C(=O)CN=C(c2ccc(F)cc2)c2ccccc21 [Ro5-5122, 4'-Fluoro-1,3-dihydro-1-methyl-5-phenyl-2H-1,4-benzodiazepin-2-one]
IC50 [1]: 442 nM

CN1C(=O)CN=C(c2ccc(Cl)cc2)c2cc(Cl)ccc21 [Ro5-4864, 4',7-Dichloro-1,3-dihydro-1-methyl-5-phenyl-2H-1,4-benzodiazepin-2-one]
effectiveness in treatment of CNS trauma/damage (in words) [4]: effective
GRIP TEST SCORE ([6]; preinjury 10 mg/kg PK 14104 (sic) plus postinjury 0.3 mg/kg Ro5 4864): 0.93 ± 0.21
GRIP TEST SCORE ([6]; preinjury vehicle, 0.3 mg/kg i.v. 5 min after injury, vehicle/vehicle 1.13 ± 0.27, P<0.05): 1.84 ± 0.24

CCN1C(=O)CN=C(c2ccc(Cl)cc2)c2cc(Cl)ccc21 [Ro5-6993, 4',7-Dichloro-1-ethyl-1,3-dihydro-5-phenyl-2H-1,4-benzodiazepin-2-one]
IC50 [1]: 6.1 nM
effectiveness for treatment of CNS trauma or disease (in words) [2]: effective

CN1C(=O)CN=C(c2ccc(Cl)cc2Cl)c2cc(Cl)ccc21 [Ro5-6902, 4',6',7-Trichloro-1,3-dihydro-1-methyl-5-phenyl-2H-1,4-benzodiazepin-2-one]
IC50 [1]: 23.4 nM
effectiveness for treatment of CNS trauma or disease (in words) [2]: effective

heparin
adverse effects [8]: high risk of brain and/or systemic hemorrhage

CN1C(=O)CN=C(c2ccc(Cl)cc2)c2cc(F)ccc21 [Ro5-6531, 4'-Chloro-7-fluoro-1,3-dihydro-1-methyl-5-phenyl-2H-1,4-benzodiazepin-2-one]
effectiveness in treatment of CNS trauma/damage (in words) [4]: effective
IC50 ([5]; displacement of 3H-Ro5-4864 in brain homogenates, * data by procedure described herein): 33.4 nM

O=C(O)[C@H]1CN(C/C=C/P(=O)(O)O)CCN1 [D-CPPene]
effect on blood pressure [9]: induces hypotension

CN1C(=O)CN=C(c2c(Cl)cccc2Cl)c2cc(Cl)ccc21 [Ro7-5520, 2',6',7-Trichloro-1,3-dihydro-1-methyl-5-phenyl-2H-1,4-benzodiazepin-2-one]
IC50 [1]: 93.1 nM

C[C@@H]1C[C@H]2[C@@H]3CCC4=CC(=O)C=C[C@]4(C)[C@@]3(F)[C@@H](O)C[C@]2(C)[C@@]1(O)C(=O)CO [dexamethasone]
effect on neurologic outcome, morbidity or mortality in stroke [7]: no difference in morbidity or mortality
adverse effects [8]: serious exacerbations of diabetes mellitus

O=C(O)C1CN(CCCP(=O)(O)O)CCN1 (centres unmarked) [CPP]
adverse reactions [10]: respiratory depression and elevated CO2 level

CN1C(=O)CN=C(c2ccccc2Cl)c2ccccc21 [Ro5-4608, 2'-Chloro-1,3-dihydro-1-methyl-5-phenyl-2H-1,4-benzodiazepin-2-one]
IC50 [1]: 215 nM

C=CCN1C(=O)CN=C(c2ccc(Cl)cc2)c2cc(Cl)ccc21 [Ro5-6945, 1-Allyl-4',7-dichloro-1,3-dihydro-5-phenyl-2H-1,4-benzodiazepin-2-one]
IC50 [1]: 14.3 nM
effectiveness for treatment of CNS trauma or disease (in words) [2]: effective

From patent US5550124A, “Use of peripheral-type benzodiazpine sites for treatment of CNS trauma or disease” (priority 1991, dated 1996)
